The text below walks through data of ChEMBL document CHEMBL4011581, “Interference with bile salt export pump function is a susceptibility factor for human liver injury in drug development” (Toxicol Sci, 2010).

The IC50 is the concentration that gives 50% inhibition.

Structures can show the parent of a compound that is named as a salt.

The experiment has as its target Bile salt export pump (Homo sapiens, UniProt O95342). The experiment is described as follows: Inhibition of human BSEP expressed in fall armyworm sf9 cell plasma membrane vesicles assessed as reduction in vesicle-associated [3H]-taurocholate transport preincubated for 10 mins prior to ATP addition measured after 15 mins in presence of [3H]-taurocholate by topcount based membrane vesicle transport assay. In kind it is ADME.
With `CCN(CC)CCNC(=O)c1cc(Cl)c(N)cc1OC` [METOCLOPRAMIDE], the IC50 was greater than 135 µM.

With `COc1ccc2cc1Oc1cc3c(cc1OC)CC[N+](C)(C)[C@H]3Cc1ccc(cc1)Oc1c(OC)c(OC)cc3c1[C@@H](C2)[N+](C)(C)CC3` [METOCURINE], the IC50 is greater than 135 µM.

Consider `COCC(=O)O[C@]1(CCN(C)CCCc2nc3ccccc3[nH]2)CCc2cc(F)ccc2[C@@H]1C(C)C` [MIBEFRADIL], for which the IC50 fell in the range of 25 to 45 µM.

For the compound `Cc1ncc2n1-c1ccc(Cl)cc1C(c1ccccc1F)=NC2` [MIDAZOLAM], the IC50 amounted to 41.7 µM.

For the compound `CN(C)C(=O)CCSC(SCCC(=O)O)c1cccc(/C=C/c2ccc3ccc(Cl)cc3n2)c1` (stereo not drawn) [MK-571], the concentration for half-maximal inhibition (IC50) stood at 3.5 µM.

On to `O=C(NCCN1CCOCC1)c1ccc(Cl)cc1` [MOCLOBEMIDE], for which the IC50 was greater than 135 µM.

Regarding `CN1CC[C@]23c4c5ccc(O)c4O[C@H]2[C@@H](O)C=C[C@H]3[C@H]1C5` [MORPHINE], the IC50 is greater than 135 µM.

On to `CC(C)(C)NCC(O)COc1cccc2c1CC(O)C(O)C2` (stereo not drawn) [NADOLOL], for which the IC50 was greater than 135 µM.

For `C=CCN1CC[C@]23c4c5ccc(O)c4O[C@H]2C(=O)CC[C@@]3(O)[C@H]1C5` [NALOXONE], the IC50 is greater than 135 µM.

Take `COc1ccc2cc([C@H](C)C(=O)O)ccc2c1` [NAPROXEN]: the concentration for half-maximal inhibition (IC50) is greater than 135 µM.

Turning to `CCc1nn(CCCN2CCN(c3cccc(Cl)c3)CC2)c(=O)n1CCOc1ccccc1` [NEFAZODONE], the IC50 was 6.1 µM.

For the compound `CN1CCOC(c2ccccc2)c2ccccc2C1` (stereo not drawn) [NEFOPAM], the IC50 is greater than 135 µM.

On to `CN(C)C(=O)Oc1cccc([N+](C)(C)C)c1` [NEOSTIGMINE], for which the IC50 was greater than 135 µM.

Consider `Cc1ccnc2c1NC(=O)c1cccnc1N2C1CC1` [NEVIRAPINE], for which the IC50 is greater than 135 µM.

In the case of `COC(=O)C1=C(C)NC(C)=C(C(=O)OCCN(C)Cc2ccccc2)C1c1cccc([N+](=O)[O-])c1` (stereo not drawn) [NICARDIPINE], the IC50 was determined as 7.9 µM.

In the case of `CN1CCC[C@H]1c1cccnc1` [NICOTINE], the IC50 was greater than 135 µM.

On to `O=C1CN=C(c2ccccc2)c2cc([N+](=O)[O-])ccc2N1` [NITRAZEPAM], for which the IC50 is greater than 135 µM.

On to `CCOC(=O)C1=C(C)NC(C)=C(C(=O)OC)C1c1cccc([N+](=O)[O-])c1` (stereo not drawn) [NITRENDIPINE], for which the IC50 lay in the range of 25 to 45 µM.

Regarding `CNCCC=C1c2ccccc2CCc2ccccc21` [NORTRIPTYLINE], the half-inhibitory concentration (IC50) is greater than 135 µM.

Take `COc1ccc2[nH]c([S+]([O-])Cc3ncc(C)c(OC)c3C)nc2c1` (stereo not drawn) [OMEPRAZOLE]: the IC50 lay within 75 to 105 µM.

For `Cc1nccn1CC1CCc2c(c3ccccc3n2C)C1=O` (stereo not drawn) [ONDANSETRON], the IC50 is greater than 135 µM.

Regarding `COc1ccc(Cc2nccc3cc(OC)c(OC)cc23)cc1OC` [PAPAVERINE], the IC50 is greater than 135 µM.

Turning to `CCn1cc(C(=O)O)c(=O)c2cc(F)c(N3CCN(C)CC3)cc21` [PEFLOXACIN], the IC50 is greater than 135 µM.

Turning to `N=C(N)c1ccc(OCCCCCOc2ccc(C(=N)N)cc2)cc1` [PENTAMIDINE], the half-maximal inhibitory concentration (IC50) is greater than 135 µM.

In the case of `CC(=O)CCCCn1c(=O)c2c(ncn2C)n(C)c1=O` [PENTOXIFYLLINE], the IC50 was greater than 135 µM.

Regarding `OCCN1CCN(CCCN2c3ccccc3Sc3ccc(Cl)cc32)CC1` [PERPHENAZINE], the half-inhibitory concentration (IC50) was greater than 135 µM.

`CCOc1ccc(NC(C)=O)cc1` [PHENACETIN]: the IC50 is greater than 135 µM.

With `[H]/N=C(/N)N/C(=N/[H])NCCc1ccccc1` [PHENFORMIN], the half-maximal inhibitory concentration (IC50) is greater than 135 µM.

On to `CCC1(c2ccccc2)C(=O)NC(=O)NC1=O` [PHENOBARBITAL], for which the IC50 is greater than 135 µM.

For `CCc1ccc(CCOc2ccc(CC3SC(=O)NC3=O)cc2)nc1` (stereo not drawn) [PIOGLITAZONE], the IC50 came to 0.4 µM.

In the case of `Cc1cccc(Nc2cc(Cl)nc(SCC(=O)O)n2)c1C` [PIRINIXIC ACID], the concentration for half-maximal inhibition (IC50) lay in the range of 75 to 105 µM.

In the case of `COc1cc2nc(N3CCN(C(=O)c4ccco4)CC3)nc(N)c2cc1OC` [PRAZOSIN], the IC50 was greater than 135 µM.

Consider `COc1cc(NC(C)CCCN)c2ncccc2c1` (stereo not drawn) [PRIMAQUINE], for which the IC50 came to 32.7 µM.

For `CC(CN1c2ccccc2Sc2ccccc21)N(C)C` (stereo not drawn) [PROMETHAZINE], the 50% inhibitory concentration (IC50) is greater than 135 µM.

Take `O=c1c(O)c(-c2ccc(O)c(O)c2)oc2cc(O)cc(O)c12` [QUERCETIN]: the IC50 was greater than 135 µM.

For `C=C[C@H]1C[N@@]2CC[C@H]1C[C@@H]2[C@@H](O)c1ccnc2ccc(OC)cc12` [QUINIDINE], the IC50 was greater than 135 µM.

Regarding `C=C[C@H]1C[N@@]2CC[C@H]1C[C@H]2[C@H](O)c1ccnc2ccc(OC)cc12` [QUININE], the IC50 was greater than 135 µM.

Regarding `CCN1CCC[C@H]1CNC(=O)c1c(OC)ccc(Br)c1OC` [REMOXIPRIDE], the half-inhibitory concentration (IC50) is greater than 135 µM.

`COC(=O)[C@H]1[C@H]2C[C@@H]3c4[nH]c5cc(OC)ccc5c4CCN3C[C@H]2C[C@@H](OC(=O)c2cc(OC)c(OC)c(OC)c2)[C@@H]1OC` [RESERPINE]: the IC50 worked out at 8.4 µM.

In the case of `CO[C@H]1/C=C/O[C@@]2(C)Oc3c(C)c(O)c4c(c3C2=O)C2=NC3(CCN(CC(C)C)CC3)NC2=C(NC(=O)/C(C)=C\C=C\[C@H](C)[C@H](O)[C@@H](C)[C@@H](O)[C@@H](C)[C@H](OC(C)=O)[C@@H]1C)C4=O` [RIFABUTIN], the IC50 was determined as 26.7 µM.

`CO[C@H]1/C=C/O[C@@]2(C)Oc3c(C)c(O)c4c(O)c(c(/C=N/N5CCN(C)CC5)c(O)c4c3C2=O)NC(=O)/C(C)=C\C=C\[C@H](C)[C@H](O)[C@@H](C)[C@@H](O)[C@@H](C)[C@H](OC(C)=O)[C@@H]1C` [RIFAMPIN]: the IC50 came to 25.3 µM.

For the compound `CS(=O)(=O)c1ccc(C2=C(c3ccccc3)C(=O)OC2)cc1` [ROFECOXIB], the IC50 was greater than 135 µM.

As to `CN(CCOc1ccc(CC2SC(=O)NC2=O)cc1)c1ccccn1` (stereo not drawn) [ROSIGLITAZONE], the IC50 was 4.4 µM.

For `C#CCN(C)[C@H](C)Cc1ccccc1` [SELEGILINE HYDROCHLORIDE], the IC50 is greater than 135 µM.

Regarding `N[C@@H](CC(=O)N1CCn2c(nnc2C(F)(F)F)C1)Cc1cc(F)c(F)cc1F` [SITAGLIPTIN], the IC50 was greater than 135 µM.

As for `CNC(=O)c1cc(Oc2ccc(NC(=O)Nc3ccc(Cl)c(C(F)(F)F)c3)cc2)ccn1` [SORAFENIB], the IC50 amounted to 8 µM.

In the case of `CC(C)NCC(O)c1ccc(NS(C)(=O)=O)cc1` (stereo not drawn) [SOTALOL], the 50% inhibitory concentration (IC50) was greater than 135 µM.

For `CN[C@@H]1C[C@H]2O[C@@](C)([C@@H]1OC)n1c3ccccc3c3c4c(c5c6ccccc6n2c5c31)C(=O)NC4` [STAUROSPORINE], the IC50 was 18.7 µM.

For the compound `Nc1ccc(S(=O)(=O)Nc2ncccn2)cc1` [SULFADIAZINE], the IC50 is greater than 135 µM.

Turning to `Cc1cc(NS(=O)(=O)c2ccc(N)cc2)no1` [SULFAMETHOXAZOLE], the IC50 was greater than 135 µM.

In the case of `Cc1noc(NS(=O)(=O)c2ccc(N)cc2)c1C` [SULFISOXAZOLE], the IC50 is greater than 135 µM.

`Cc1ccc(C(=O)Nc2ccc(S(=O)(=O)O)c3cc(S(=O)(=O)O)cc(S(=O)(=O)O)c23)cc1NC(=O)c1cccc(NC(=O)Nc2cccc(C(=O)Nc3cc(C(=O)Nc4ccc(S(=O)(=O)O)c5cc(S(=O)(=O)O)cc(S(=O)(=O)O)c45)ccc3C)c2)c1` [SURAMIN]: the half-maximal inhibitory concentration (IC50) was greater than 135 µM.

Turning to `Nc1c2c(nc3ccccc13)CCCC2` [TACRINE], the IC50 was greater than 135 µM.

For `CC[C@H]1OC(=O)[C@H](C)C(=O)[C@H](C)[C@@H](O[C@@H]2O[C@H](C)C[C@H](N(C)C)[C@H]2O)[C@](C)(OC)C[C@@H](C)C(=O)[C@H](C)[C@H]2N(CCCCn3cnc(-c4cccnc4)c3)C(=O)O[C@]12C` [TELITHROMYCIN], the IC50 worked out at 4 µM.

For the compound `CN1C(C(=O)Nc2ccccn2)=C(O)c2sccc2S1(=O)=O` [TENOXICAM], the IC50 was greater than 135 µM.

As for `CC(C)(C)NCC(O)c1cc(O)cc(O)c1` (stereo not drawn) [TERBUTALINE], the 50% inhibitory concentration (IC50) is greater than 135 µM.

In the case of `Cn1c(=O)c2[nH]cnc2n(C)c1=O` [THEOPHYLLINE], the IC50 was greater than 135 µM.

`S=P(N1CC1)(N1CC1)N1CC1` [THIOTEPA]: the IC50 is greater than 135 µM.

For the compound `CCN(CC)CCOc1ccc2c(c1)C(=O)c1cc(OCCN(CC)CC)ccc1-2` [TILORONE], the IC50 is greater than 135 µM.

Regarding `CC(C)(C)NC[C@H](O)COc1nsnc1N1CCOCC1` [TIMOLOL], the IC50 is greater than 135 µM.

In the case of `Clc1ccc2nsnc2c1NC1=NCCN1` [TIZANIDINE], the IC50 was greater than 135 µM.

Take `CCCCNC(=O)NS(=O)(=O)c1ccc(C)cc1` [TOLBUTAMIDE]: the IC50 was greater than 135 µM.

Regarding `Cc1ccc(C(=O)c2cc(O)c(O)c([N+](=O)[O-])c2)cc1` [TOLCAPONE], the IC50 was 34.5 µM.

`O=c1n(CCCN2CCN(c3cccc(Cl)c3)CC2)nc2ccccn12` [TRAZODONE]: the IC50 was greater than 135 µM.

In the case of `COc1cc(Cc2cnc(N)nc2N)cc(OC)c1OC` [TRIMETHOPRIM], the IC50 was greater than 135 µM.

On to `Cc1c(C)c2c(c(C)c1O)CCC(C)(COc1ccc(CC3SC(=O)NC3=O)cc1)O2` (stereo not drawn) [TROGLITAZONE], for which the IC50 is 5.9 µM.

As for `COc1cc2c3cc1Oc1cc(ccc1O)C[C@@H]1c4c(cc(OC)c(O)c4Oc4ccc(cc4)C[C@@H]3N(C)CC2)CC[N+]1(C)C` [TUBOCURARINE], the IC50 is greater than 135 µM.

Regarding `CC(C)[C@@H]1NC(=O)[C@H](C)OC(=O)[C@@H](C(C)C)NC(=O)[C@@H](C(C)C)OC(=O)[C@H](C(C)C)NC(=O)[C@H](C)OC(=O)[C@@H](C(C)C)NC(=O)[C@@H](C(C)C)OC(=O)[C@H](C(C)C)NC(=O)[C@H](C)OC(=O)[C@@H](C(C)C)NC(=O)[C@@H](C(C)C)OC1=O` [VALINOMYCIN], the IC50 was found to be 1.6 µM.

As for `COc1ccc(C(CN(C)C)C2(O)CCCCC2)cc1` (stereo not drawn) [VENLAFAXINE], the IC50 is greater than 135 µM.

With `CC[C@]1(O)C[C@@H]2CN(CCc3c([nH]c4ccccc34)[C@@](C(=O)OC)(c3cc4c(cc3OC)N(C)[C@H]3[C@@](O)(C(=O)OC)[C@H](OC(C)=O)[C@]5(CC)C=CCN6CC[C@]43[C@@H]65)C2)C1` [VINBLASTINE], the IC50 is greater than 135 µM.

In the case of `COC[C@H]1OC(=O)c2coc3c2[C@@]1(C)C1=C(C3=O)[C@@H]2CCC(=O)[C@@]2(C)C[C@H]1OC(C)=O` [WORTMANNIN], the IC50 was found to be 13.6 µM.

With `O=P(O)(O)C(O)(Cn1ccnc1)P(=O)(O)O` [ZOLEDRONIC ACID], the IC50 is greater than 135 µM.

Consider `NS(=O)(=O)Cc1noc2ccccc12` [ZONISAMIDE], for which the 50% inhibitory concentration (IC50) was greater than 135 µM.
